Read-outs that look alike come from different tables or passages of the source.

In article PMC9658561, “[^99mTc]Tc-PSMA-T4—Novel SPECT Tracer for Metastatic PCa: From Bench to Clinic” (Molecules, 2022) one finds Kd and IC50 data, which are given here for five molecules.

The target in test [1] is PSMA. Set-up: method as in PMID 24983957. As to conditions: cited from earlier work.
Test [2] deals with T1, PSMA (Homo sapiens, UniProt Q04609).
T1 construct: host or cells: LNCaP cell membranes
The test is described as follows: Competitive binding on LNCaP cell membranes with [131I]I-MIP1095 as competitive radioligand. As to conditions: [131I]I-MIP1095 radioligand, 2 h at 37 °C. As to the method:
Cells from prostate cancer carcinomas: LNCaP and PC3, were isolated like previously described. The cells were harvested using 1 mL/flask of Trypsin-EDTA solution and centrifuged (1500 rpm for 15 min (LNCaP) and 1300 rpm for 6 min (PC3)). Received cell sediment was resuspended in 9.7 mM NaHCO3 containing 0.3 mM NaH2PO4 and incubated for 30 min at 4 °C. The solution was dispensed on 1.5 mL Eppendorf and centrifuged (13,500 rpm for 30 min). The supernatant was removed, the pellet was resuspended in 50 mM Tris-HCl Buffer (pH 7.4) and homogenized using a syringe with a thin needle. The solution was centrifuged (13,500 rpm for 30 min), and the final pellet was suspended in 50 mM Tris-HCl buffer (pH 7.4) and transferred to −70 °C.
The LNCaP cell membranes were distributed (in four replicates) in the constant amount on special MultiScreen™ 96 well assay plates. 100 µL of un-supplemented RPMI 1640 medium and 50 µL of increasing concentration of the unlabeled PSMA inhibitors was added to each well. As a control, 50 µL of PBS in 100 µL of media was used. After 15 min incubation at 37 °C, 50 µL of [^131I]I-MIP-1095 was added. Plates were incubated for 2 h at 37 °C. After an appropriate time, the supernatant solution was filtered under vacuum, and the membranes were washed twice with PBS solution. Filters and membranes were extruded to the tubes using MultiScreen Multiple Punch. The radioactivity of the filters was measured using a Wallac Wizard 1470 γ counter. The IC50 was evaluated and determined using GraphPad Prism 9.4 statistic program. As a control, PSMA-11 was used.

The test system of test [3] is PSMA. Also noted: method as in PMID 28450562. As to conditions: affinity for PSMA ref 53; cited from earlier work.

T1 sequence (Q04609 whole entry): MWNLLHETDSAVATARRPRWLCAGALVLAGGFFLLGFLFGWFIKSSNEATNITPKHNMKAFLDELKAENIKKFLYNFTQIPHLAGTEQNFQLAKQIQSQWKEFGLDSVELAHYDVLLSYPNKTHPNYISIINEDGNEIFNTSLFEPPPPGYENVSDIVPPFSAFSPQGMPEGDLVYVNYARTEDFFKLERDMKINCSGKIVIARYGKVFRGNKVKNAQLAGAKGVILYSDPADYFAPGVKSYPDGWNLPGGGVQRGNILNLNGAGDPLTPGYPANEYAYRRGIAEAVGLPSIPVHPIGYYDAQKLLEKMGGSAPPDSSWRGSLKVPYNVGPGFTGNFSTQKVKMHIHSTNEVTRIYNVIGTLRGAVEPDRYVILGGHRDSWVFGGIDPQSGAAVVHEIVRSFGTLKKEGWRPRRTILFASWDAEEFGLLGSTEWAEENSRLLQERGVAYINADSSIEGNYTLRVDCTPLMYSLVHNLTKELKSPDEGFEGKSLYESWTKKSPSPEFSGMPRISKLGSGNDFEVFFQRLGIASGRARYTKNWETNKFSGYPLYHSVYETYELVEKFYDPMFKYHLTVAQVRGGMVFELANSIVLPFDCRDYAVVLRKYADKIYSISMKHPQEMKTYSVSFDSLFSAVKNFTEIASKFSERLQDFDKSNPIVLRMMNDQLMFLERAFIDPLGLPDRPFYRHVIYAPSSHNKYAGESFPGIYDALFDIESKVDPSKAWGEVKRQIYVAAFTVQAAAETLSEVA

Broadly, the Kd is the equilibrium constant for the complex coming apart. The term IC50 denotes the concentration that inhibits the measured activity by half. With `O=C(O)CCc1ccc(O)c(CN(CCN(CC(=O)O)Cc2cc(CCC(=O)NCCCCCC(=O)NCCCC[C@H](NC(=O)N[C@@H](CCC(=O)O)C(=O)O)C(=O)O)ccc2O)CC(=O)O)c1` [PSMA-11], the dissociation constant Kd on PSMA [1] is 11.4 nM. At PSMA [2], this molecule yielded an IC50 of 715 nM.
For `O.O=C([O-])CN(CCN(CC(=O)[O-])Cc1cc(CCC(=O)O)ccc1O)Cc1cc(CCC(=O)NCCCCCC(=O)NCCCC[C@H](NC(=O)N[C@@H](CCC(=O)O)C(=O)O)C(=O)O)ccc1[O-].[Ga+3]` [[^68Ga]Ga-PSMA-11, Glu-NH-CO-Lys-(ahx)-HBED-CC-[^68Ga]Ga], the Kd at PSMA [1] (literature value ref 15) is 11.4 ± 7.1 nM.
Turning to `NNc1ccc(C(=O)NCCCCCC(=O)N[C@@H](Cc2c[nH]c3ccccc23)C(=O)NCCCC[C@H](NC(=O)N[C@@H](CCC(=O)O)C(=O)O)C(=O)O)cn1` [PSMA-T3, Glu-CO-Lys-LTrp-6Ahx-HYNIC], at PSMA [2], the half-maximal inhibitory concentration (IC50) stood at 74.6 nM.
The same measure, in the same setting: then `NNc1ccc(C(=O)NC[C@H]2CC[C@H](C(=O)N[C@@H](Cc3c[nH]c4ccccc34)C(=O)NCCCC[C@H](NC(=O)N[C@@H](CCC(=O)O)C(=O)O)C(=O)O)CC2)cn1` [PSMA-T4, (S)-2-{3-[(S)-5-[(S)-3-(1H-Indol-3-yl)-2-({(1r,4r)-4-[(6-hydrazino-nicotinoylamino)methyl]cyclohexyl}carbonylamino)propionylamino]-1-carboxypentyl]ureido}glutaric acid], with 79.5 nM.
Consider `O=C(O)CC[C@H](NC(=O)N[C@@H](CCCCNC(=O)Nc1ccc([131I])cc1)C(=O)O)C(=O)O` [[^131I]I-MIP-1095, (2S)-2-({[(1S)-1-carboxy-5-({[4-[¹³¹I]iodophenyl]carbamoyl}amino)pentyl]carbamoyl}amino)pentanedioic acid], for which the IC50 in the test on PSMA [3] was 0.3 nM.
